The values below come from article PMC8958428 (Yeast (Chichester, England), 2021).

This test concerns the target Hem1p (Hem1-His6) (Saccharomyces cerevisiae, UniProt P09950). The test is described as follows: ALA synthase activity, control reactions. The following applies: concentration not told. The test is classed as biochemical.

Sequence of Hem1p (Hem1-His6) (P09950 10-548): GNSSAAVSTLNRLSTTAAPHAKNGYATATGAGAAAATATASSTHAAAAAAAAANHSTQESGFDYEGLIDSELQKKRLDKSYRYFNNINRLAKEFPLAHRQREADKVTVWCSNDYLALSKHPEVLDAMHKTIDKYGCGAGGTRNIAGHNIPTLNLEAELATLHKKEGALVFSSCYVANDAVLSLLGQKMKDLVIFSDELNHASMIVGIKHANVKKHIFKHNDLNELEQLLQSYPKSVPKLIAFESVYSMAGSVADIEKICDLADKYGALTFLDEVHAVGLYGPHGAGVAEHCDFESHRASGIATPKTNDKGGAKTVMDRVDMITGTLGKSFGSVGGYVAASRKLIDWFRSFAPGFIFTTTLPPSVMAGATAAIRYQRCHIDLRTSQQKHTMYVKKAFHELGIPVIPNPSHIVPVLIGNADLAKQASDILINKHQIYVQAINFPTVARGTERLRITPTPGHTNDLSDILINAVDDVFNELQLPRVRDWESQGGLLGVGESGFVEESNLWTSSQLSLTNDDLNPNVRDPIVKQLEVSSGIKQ

With `N[C@@H](CS)C(=O)O` [L-cysteine], the “ALA synthase activity, control reactions” value is “Control reactions showed that Hem1p was inhibited by both L-serine and L-cysteine”.

On to `N[C@@H](CO)C(=O)O` [L-serine], for which the “ALA synthase activity, control reactions” value was “Control reactions showed that Hem1p was inhibited by both L-serine and L-cysteine”.
